For 16 compounds, EC50 and CC50 results are on record in patent US11639350B2, “Heteroaryldihydropyrimidine derivatives and methods of treating hepatitis B infections” (Janssen Pharmaceutica NV, priority 2018, dated 2023).

Where two headings read alike, the source gives them in different places.

One series deals with HBV. The series is described as follows: HBV inhibitory activity: HBV DNA in the culture medium of HepG2.2.15 cells by q-PCR. In kind it is cell-based. As to conditions: HepG2.2.15 cells, 6 days of compound treatment, HBV DNA in culture medium by q-PCR, highest concentration 10 μM, read-out: EC50. An outline of the steps: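 HepG2.2.15 cells in 2% FBS medium, 40,000 per well, treated 6 days with compound (medium refreshed once), eight 3-fold dilutions from 10 μM top. HBV DNA extracted from culture medium and quantified by q-PCR; EC50 averaged over repeats. Cytotoxicity run in parallel at 5,000 cells per well, top 100 μM, giving CC50.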

Series [1] in a line: Cytotoxicity determination in HepG2.2.15 cells (CCK-8). In kind it is cell-based. As to conditions: human, 6 days of compound treatment, CCK-8, highest concentration 100 μM. An outline of the steps: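 HepG2.2.15 cells seeded at 5,000 cells/well in 2% FBS medium, incubated overnight at 37° C., then treated 6 days with compounds (8 points, 3-fold dilutions, top 100 μM), medium refreshed once midway. CCK-8 added for 2.5 h; A450 read against 630 nm reference; CC50 calculated, averaged over repeats.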

The mark [2] stands for this setting: Hepatitis B virus, HepG2.2.15, 144 h.

In general, EC50 refers to the midpoint of the concentration-response curve. The CC50 is the concentration giving 50% cytotoxicity. A low value points to greater toxicity to the cells.

For `COC(=O)C1=C([C@H]2CC[C@@H](S(=O)(=O)NC(C)C)CC2)NC(c2nccs2)=NC1c1ccc(F)c(F)c1Cl` (single isomer, unassigned) [Compound 234B, (cis)-methyl 4-(2-chloro-3,4-difluorophenyl)-6-(4-(N-isopropylsulfamoyl)cyclohexyl)-2-(thiazol-2-yl)-1,4-dihydropyrimidine-5-carboxylate], the concentration giving a half-maximal response (EC50) in the series on HBV (setting [2]) is 113 nM. The compound further returned a half-maximal cytotoxic concentration (CC50) at 6 days in series [1] of 16300 nM.
In the same order, the values of `COC(=O)C1=C([C@H]2CC[C@H](S(=O)(=O)NC(C)C)CC2)NC(c2nccs2)=NC1c1ccc(F)c(F)c1Cl` (single isomer, unassigned) [Compound 234D, (trans)-methyl 4-(2-chloro-3,4-difluorophenyl)-6-(4-(N-isopropylsulfamoyl)cyclohexyl)-2-(thiazol-2-yl)-1,4-dihydropyrimidine-5-carboxylate] are 13 nM and 4200 nM.
In the same order, the values of `COC(=O)C1=C([C@H]2CC[C@H](C(=O)OC)CC2)NC(c2nc(C)cs2)=NC1c1ccc(F)cc1Br` (single isomer, unassigned) [Compound 239X, (trans)-Methyl 4-(2-bromo-4-fluorophenyl)-6-(4-(methoxycarbonyl)cyclohexyl)-2-(4-methylthiazol-2-yl)-1,4-dihydropyrimidine-5-carboxylate] are 149 nM and 14800 nM.
With `COC(=O)C1=C(C2CCN(S(=O)(=O)[C@H]3C[C@H](C(C)(C)O)C3)CC2)NC(c2nccs2)=NC1c1ccc(F)cc1Cl` (single isomer, unassigned) [Compound 244B, (trans)-Methyl 4-(2-chloro-4-fluorophenyl)-6-(1-((3-(2-hydroxypropan-2-yl)cyclobutyl)sulfonyl)piperidin-4-yl)-2-(thiazol-2-yl)-1,4-dihydropyrimidine-5-carboxylate], the EC50 in the series with HBV (setting [2]) is 6 nM. Besides, the 50% cytotoxic concentration (CC50) at 6 days in series [1] amounted to 12300 nM.
With `COC(=O)C1=C(C2CCN(S(=O)(=O)[C@H]3C[C@@H](C(C)(C)O)C3)CC2)NC(c2nccs2)=NC1c1ccc(F)cc1Cl` (single isomer, unassigned) [Compound 244D, (cis)-Methyl 4-(2-chloro-4-fluorophenyl)-6-(1-((3-(2-hydroxypropan-2-yl)cyclobutyl)sulfonyl)piperidin-4-yl)-2-(thiazol-2-yl)-1,4-dihydropyrimidine-5-carboxylate], the EC50 with HBV (setting [2]) amounted to 107 nM. Besides, the CC50 at 6 days in series [1] was 60000 nM.
In the same order, the values of `COC[C@H](O)CN([C@H]1CC[C@H](C2=C(C(=O)OC)C(c3ccc(F)c(F)c3Cl)N=C(c3nccs3)N2)CC1)S(C)(=O)=O` (single isomer, unassigned) [Compound 245B] are 49 nM and 12300 nM.
Regarding `COC[C@@H](O)CN([C@H]1CC[C@H](C2=C(C(=O)OC)C(c3ccc(F)c(F)c3Cl)N=C(c3nccs3)N2)CC1)S(C)(=O)=O` (single isomer, unassigned) [Compound 245D], the EC50 in the series with HBV (setting [2]) was found to be 15 nM. The compound also returned a CC50 at 6 days in series [1] of 12500 nM.
On to `COC(=O)C1=C([C@H]2CC[C@H](NS(=O)(=O)C3CN(C)C3)CC2)NC(c2nccs2)=NC1c1ccc(F)c(F)c1Cl` (single isomer, unassigned) [Compound 251B, (trans)-Methyl 4-(2-chloro-3,4-difluorophenyl)-6-(4-(1-methylazetidine-3-sulfonamido)cyclohexyl)-2-(thiazol-2-yl)-1,4-dihydropyrimidine-5-carboxylate], for which, in the series with HBV (setting [2]), the EC50 was 103 nM. The same compound yielded a CC50 at 6 days in series [1] of 8700 nM.
The like results for `CNS(=O)(=O)[C@H]1CC[C@@H](C2=C(C(=O)OC)C(c3cccc(F)c3Cl)N=C(c3nccs3)N2)CC1` (single isomer, unassigned) [Compound 259C, (cis)-methyl 4-(2-chloro-3-fluorophenyl)-6-(4-(N-methylsulfamoyl)cyclohexyl)-2-(thiazol-2-yl)-1,4-dihydropyrimidine-5-carboxylate] were, in that order, 36 nM and 12700 nM.
The like results for `CNS(=O)(=O)[C@H]1CC[C@H](C2=C(C(=O)OC)C(c3cccc(F)c3Cl)N=C(c3nccs3)N2)CC1` (single isomer, unassigned) [Compound 259E, (trans)-methyl 4-(2-chloro-3-fluorophenyl)-6-(4-(N-methylsulfamoyl)cyclohexyl)-2-(thiazol-2-yl)-1,4-dihydropyrimidine-5-carboxylate] were, in that order, 28 nM and 22700 nM.
As to `CCOC(=O)C1=C([C@@H]2CC[C@H](C(=O)O)OC2)NC(c2nccs2)=NC1c1ccc(F)cc1Cl` (single isomer, unassigned) [Compound 265E, (cis)-5-(−6-(2-Chloro-4-fluorophenyl)-5-(ethoxycarbonyl)-2-(thiazol-2-yl)-3,6-dihydropyrimidin-4-yl)tetrahydro-2H-pyran-2-carboxylic Acid], the EC50 in the series on HBV is 978 nM. This compound gave a half-maximal cytotoxic concentration (CC50) at 6 days in series [1] of 92300 nM.
Consider `COCCNS(=O)(=O)N1CCC(C2=C(C(=O)OC)C(c3ccc(F)cc3Cl)N=C(c3nccs3)N2)CC1` (single isomer, unassigned) [Compound 268B, Methyl 4-(2-chloro-4-fluorophenyl)-6-(1-(N-(2-methoxyethyl)-sulfamoyl)piperidin-4-yl)-2-(thiazol-2-yl)-1,4-dihydropyrimidine-5-carboxylate], for which the EC50 with HBV (setting [2]) was 59 nM. For the same compound, the CC50 at 6 days in series [1] was determined as 30700 nM.
Regarding `COC(=O)C1=C([C@H]2CC[C@H](C(=O)OC)CC2)NC(c2nccs2)=NC1c1ccc(F)c(F)c1Cl` (single isomer, unassigned) [Compound 288M, (trans)-Methyl 4-(2-chloro-3,4-difluorophenyl)-6-(4-(methoxycarbonyl)cyclohexyl)-2-(thiazol-2-yl)-1,4-dihydropyrimidine-5-carboxylate], the EC50 in the series on HBV (setting [2]) was found to be 63 nM. Further, the CC50 at 6 days in series [1] stood at 20000 nM.
For `COC(=O)C1=C([C@H]2CC[C@H](S(=O)(=O)NCCO)CC2)NC(c2nccs2)=NC1c1ccc(F)c(F)c1Cl` (single isomer, unassigned) [Compound 291C, (trans)-Methyl 4-(2-chloro-3,4-difluorophenyl)-6-(4-(N-(2-hydroxyethyl)sulfamoyl)cyclohexyl)-2-(thiazol-2-yl)-1,4-dihydropyrimidine-5-carboxylate], the concentration giving a half-maximal response (EC50) with HBV (setting [2]) turned out to be 16 nM. Besides, half-maximal cytotoxicity in series [1] (CC50 at 6 days) was put at 12000 nM.
In the same order, the values of `CCOC(=O)C1=C([C@H]2CCC[C@H](C(=O)O)CC2)NC(c2nccs2)=NC1c1ccc(F)c(F)c1Cl` (single isomer, unassigned) [Compound 302A, (trans)-4-(−6-(2-Chloro-3,4-difluorophenyl)-5-(ethoxycarbonyl)-2-(thiazol-2-yl)-3,6-dihydropyrimidin-4-yl)cycloheptanecarboxylic Acid] are 24 nM and 15200 nM.
On to `COC(=O)C1=C(C2CCN(S(=O)(=O)CC(O)CO)CC2)NC(c2nccs2)=NC1c1ccc(F)cc1Cl` (single isomer, unassigned) [Compound 305A, Methyl 4-(2-chloro-4-fluorophenyl)-6-(1-((2,3-dihydroxypropyl)sulfonyl)piperidin-4-yl)-2-(thiazol-2-yl)-1,4-dihydropyrimidine-5-carboxylate], for which the EC50 in the series with HBV (setting [2]) is 47 nM. The same compound registered a CC50 at 6 days in series [1] of 36200 nM.
